Calls of active or inactive are those of the source. No cut-off for these calls is given here.

Assay [1] concerns Human immunodeficiency virus. The experiment in a line: Antiviral activity against HIV by NCI test. The format is functional, organism-based.
Assay [2] deals with Mycobacterium tuberculosis. Kind of assay: Antimycobacterial activity against Mycobacterium tuberculosis at 12.5 ug/mL. Type of assay: functional.

Regarding `CC(C)=C[C@@H]1C[C@H](C)c2c(O)cc(C)c3c2C1=C(C)C(=O)C3=O` [ELISABATIN A], the outcome in assay [1] was inactive. Also, the Activity in assay [2] came to 21%.

Values taken from ChEMBL document CHEMBL1144071, “Elisabatins A and B: new amphilectane-type diterpenes from the West Indian sea whip Pseudopterogorgia elisabethae” (1999).
